Data on 75 molecules can be found in patent US20070037785A1, “Novel dipeptidyl peptidase IV inhibitors used for functionally influencing different cells and treating immunological, infammatory, neuronal, and other diseases” (priority 2003, published 2007).

The structures appear in SMILES notation. pIC50: −log10 of the molar value.

In the first experiment the target is dipeptidyl peptidase IV (Homo sapiens, UniProt P27487). The experiment is described as follows: biochemical. The note with it: values marked with "*" are ID50 values; read-out: IC50DPIV, values marked with "*" = ID50.
dipeptidyl peptidase IV, sequence (P27487 whole entry, species assumed): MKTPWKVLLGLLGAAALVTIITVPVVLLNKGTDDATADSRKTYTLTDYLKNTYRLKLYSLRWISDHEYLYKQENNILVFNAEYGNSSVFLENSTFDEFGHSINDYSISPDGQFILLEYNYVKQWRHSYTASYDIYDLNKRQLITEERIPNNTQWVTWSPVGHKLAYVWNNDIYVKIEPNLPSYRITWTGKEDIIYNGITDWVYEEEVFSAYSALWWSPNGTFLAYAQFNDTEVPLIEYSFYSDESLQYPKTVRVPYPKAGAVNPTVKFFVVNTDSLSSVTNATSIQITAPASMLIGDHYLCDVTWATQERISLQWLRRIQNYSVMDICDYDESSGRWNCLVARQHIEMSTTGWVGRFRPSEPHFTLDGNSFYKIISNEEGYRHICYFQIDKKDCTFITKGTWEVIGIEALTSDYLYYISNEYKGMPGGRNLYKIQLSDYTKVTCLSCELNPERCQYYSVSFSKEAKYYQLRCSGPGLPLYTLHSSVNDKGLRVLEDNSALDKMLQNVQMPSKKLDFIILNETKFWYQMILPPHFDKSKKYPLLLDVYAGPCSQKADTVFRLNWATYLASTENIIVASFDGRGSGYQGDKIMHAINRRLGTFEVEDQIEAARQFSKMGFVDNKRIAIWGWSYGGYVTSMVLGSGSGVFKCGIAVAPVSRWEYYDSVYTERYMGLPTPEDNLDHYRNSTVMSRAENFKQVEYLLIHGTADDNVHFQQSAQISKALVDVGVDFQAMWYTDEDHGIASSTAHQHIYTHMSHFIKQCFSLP
On to `CCOC(=O)n1ccc(C(=O)Nc2cc(C)ccn2)n1` [D6.112], for which the pIC50 was 3.83.

Regarding `CCOC(=O)c1c(NC(=O)c2cccc([N+](=O)[O-])c2)sc(C(C)=O)c1C` [D6.117], the pIC50 was 3.67.

With `O=C(CC1(O)OC(c2ccccc2)=CC1=O)c1ccccc1` (stereo not drawn) [D6.122], the pIC50 was 3.60.

With `COc1ccc(NC(=O)CSc2nnc3n2-c2sc4c(c2C(=O)C3CCc2ccccc2)CC(C)(C)OC4)cc1` (stereo not drawn) [D6.126], the pIC50 was 3.55.

Consider `CCn1c2ccccc2c2ccc(/C=N/NC(=O)c3ccc([N+](=O)[O-])cc3)cc21` [D7.001], for which the pIC50 was 3.78.

For the molecule `COc1ccc(N(C(C)C(=O)N/N=C/c2ccc(Cl)cc2Cl)S(C)(=O)=O)cc1` (stereo not drawn) [D9.001], the pIC50 was 5.54.

As for `Cc1cc(NNC(=O)COc2ccc(Cl)cc2Cl)nc(NS(=O)(=O)c2ccccc2)n1` [D9.015], the pIC50 is 3.33.

As to `O=C(CCCCC(=O)N/N=C/c1ccc(OC(=O)c2cc([N+](=O)[O-])cc([N+](=O)[O-])c2)cc1)N/N=C/c1ccc(OC(=O)c2cc([N+](=O)[O-])cc([N+](=O)[O-])c2)cc1` [D10.001], the pIC50 is 6.00.

Regarding `COc1cc(/C=N/NC(=O)c2cc(O)c(O)c(O)c2)cc(Br)c1OCc1ccccc1Cl` [D10.002], the pIC50 was 5.70.

As to `COc1ccc(N(C(C)C(=O)N/N=C/c2ccc(Cl)cc2Cl)S(C)(=O)=O)cc1` (stereo not drawn) [D10.003], the pIC50 is 5.54.

In the case of `C/C(=N\NC(=O)c1cc(-c2ccc(CC(C)C)cc2)n[nH]1)c1ccc2ccccc2c1` [D10.007], the pIC50 is 5.14.

The same experiment, now with this note: values without "*" = IC-50; read-out: IC50DPIV.
For the molecule `Cc1ccc(S(=O)(=O)CNC(=S)c2ccc3ccccc3c2)cc1` [D9.002], the pIC50 is 4.84.

Turning to `CCCC(=O)Oc1ccc(N(C(=O)CCC)S(=O)(=O)c2cccs2)cc1` [D9.004], the pIC50 was 4.50.

As to `CCOC(=O)c1c(C)oc2c1c1c(c3ccccc32)OCN(C2CCS(=O)(=O)C2)C1` (stereo not drawn) [D9.006], the pIC50 was 4.47.

Consider `CS(=O)(=O)N1CCN(C(=O)Nc2ccc(C(F)(F)F)cc2)C1C(=O)NCc1cccc(N)c1` (stereo not drawn) [D9.007], for which the pIC50 is 4.39.

Regarding `CCOP(=O)(CC(=O)N1CCN(C(=O)Nc2cccc(Br)c2)C1C(=O)NCc1cccc(CN)c1)OCC` (stereo not drawn) [D9.008], the pIC50 was 4.33.

For `COc1ccc(NS(=O)(=O)c2ccc(/N=C/c3cc(Br)cc(Br)c3O)cc2)nn1` [D9.010], the pIC50 is 4.05.

Regarding `O=C(N/N=C/c1ccc([N+](=O)[O-])c(O)c1)/C(=C\c1cccs1)NC(=O)c1ccccc1` [D10.004], the pIC50 is 5.19.

Regarding `CCC(=O)Oc1ccc(/C=N/NC(=O)c2ccccc2[N+](=O)[O-])c(OC(=O)CC)c1` [D10.005], the pIC50 was 5.18.

Turning to `CN(C)c1ccc(/C=N\NC(=O)c2cc(N)ccc2O)cc1` [D10.008], the pIC50 is 5.12.

Take `O=C(N/N=C/c1cc([N+](=O)[O-])ccc1O)c1cccc2cc[nH]c12` [D10.009]: the pIC50 is 5.09.

Consider `COc1cc(Br)cc(Br)c1OCC(=O)N/N=C/c1cc(O)c(O)c(Br)c1Br` [D10.010], for which the pIC50 was 5.04.

As to `CC(=O)N(C(C)=O)c1nc(-c2ccccc2)cn1/N=C/c1ccccc1` [D10.011], the pIC50 was 5.00.

For the molecule `Nc1nonc1-n1nnc(C(=O)NN=C2c3ccccc3-c3ccccc32)c1-c1ccccc1` [D10.012], the pIC50 is 5.00.

Consider `COc1cc(Br)ccc1OCC(=O)N/N=C/c1cc(O)c(O)c(Br)c1Br` [D10.013], for which the pIC50 was 4.99.

Regarding `O=C(COc1cccc(Br)c1)N/N=C/c1cc(O)c(O)c(Br)c1Br` [D10.014], the pIC50 was 4.94.

With `Brc1cccc(/C=N/Nc2nnc3c(n2)[nH]c2ccccc23)c1` [D10.015], the pIC50 is 4.91.

Regarding `COc1ccc(/C=N/NC(=O)c2cc(O)c(O)c(O)c2)cc1COc1cc(C)c(Cl)c(C)c1` [D10.016], the pIC50 was 4.91.

For `COc1ccccc1/C=N/NC(=O)c1cccc([N+](=O)[O-])c1` [D10.017], the pIC50 was 4.91.

For `O=C(Cn1c2ccccc2c(=O)c2ccccc21)NN=Cc1cc(Br)c(O)c(Br)c1` [D10.018], the pIC50 was 4.91.

Turning to `COc1c(OC(C)=O)ccc(/C=N/NC(=O)CNc2cccc(C)c2)c1[N+](=O)[O-]` [D10.019], the pIC50 is 4.90.

Consider `O=C(CCCCC(=O)N/N=C/c1ccccc1[N+](=O)[O-])N/N=C/c1ccccc1[N+](=O)[O-]` [D10.020], for which the pIC50 is 4.89.

Regarding `Cc1cccc(C(=O)Oc2c(Br)cc(Br)cc2/C=N/NC(=O)CNC(=O)c2ccc(Cl)cc2)c1` [D10.021], the pIC50 is 4.88.

As for `C/C(=N\NC(=O)CSCc1ccccc1Br)c1ccc(I)cc1` [D10.022], the pIC50 is 4.88.

For `CCOc1cc(/C=N/NC(=O)c2cc(C)n[nH]2)ccc1O` [D10.023], the pIC50 was 4.87.

For the molecule `CCOc1cc(/C=N/NC(=O)c2cc(C)oc2C)ccc1O` [D10.025], the pIC50 was 4.79.

Regarding `O=C(N/N=C/c1ccc(-c2ccc(Cl)cc2)o1)/C(=C/c1ccc([N+](=O)[O-])cc1)NC(=O)c1ccccc1` [D10.026], the pIC50 was 4.79.

As for `CCOc1cc(/C=N\NC(=O)c2cnccn2)ccc1O` [D10.027], the pIC50 was 4.78.

Consider `O=C(N/N=C/c1ccc(OC(=O)c2ccco2)c([N+](=O)[O-])c1)/C(=C\c1cccs1)NC(=O)c1ccccc1` [D10.028], for which the pIC50 is 4.78.

With `O=C(N/N=C/c1cc([N+](=O)[O-])cc([N+](=O)[O-])c1O)/C(=C\c1cccs1)NC(=O)c1ccccc1` [D10.029], the pIC50 was 4.76.

Turning to `Cc1ccc(OCC(=O)N/N=C\c2ccc(O)c([N+](=O)[O-])c2)c([N+](=O)[O-])c1` [D10.030], the pIC50 is 4.75.

Turning to `COc1ccc2ccccc2c1/C=N/NC(=O)c1cc2ccccc2cc1O` [D10.031], the pIC50 was 4.75.

As for `O=C(CNc1ccc2ccccc2c1)N/N=C1/C(=O)Nc2ccc([N+](=O)[O-])cc21` [D10.032], the pIC50 is 4.74.

Take `COc1cc(/C=N/NC(=O)COc2ccc(C(C)(C)CC(C)(C)C)cc2)cc([N+](=O)[O-])c1O` [D10.033]: the pIC50 is 4.72.

For `CCOc1cc(/C=N/NC(=O)c2cc(O)c(O)c(O)c2)ccc1O` [D10.034], the pIC50 is 4.72.

As for `CCOc1cc(/C=N/NC(=O)COc2ccc(Cl)cc2)ccc1OC(=O)c1ccc(Br)cc1` [D10.035], the pIC50 was 4.70.

With `O=C(Cn1nnc(-c2ccc(F)cc2)n1)N/N=C/c1ccc(-c2ccc3c(c2)COC3=O)o1` [D10.036], the pIC50 was 4.69.

Consider `CCN(CC)c1ccc(/C=C(/NC(=O)c2ccccc2)C(=O)N/N=C/c2c(C)c(Br)c(O)c(Br)c2O)cc1` [D10.037], for which the pIC50 is 4.69.

`CC(/C=N/NC(=O)CNc1ccc(C)cc1)=C\c1ccc(/C=C(C)/C=N/NC(=O)CNc2ccc(C)cc2)cc1` [D10.038]: the pIC50 is 4.69.

Turning to `CCOc1cc(/C=N/NC(=O)c2cc(C3CC3)[nH]n2)ccc1O` [D10.039], the pIC50 was 4.68.

In the case of `O=C(N/N=C/c1ccc([N+](=O)[O-])o1)c1ccccc1I` [D10.040], the pIC50 was 4.68.

Consider `COc1cc(/C=N/NC(=O)c2ccco2)cc(OC)c1OC(C)=O` [D10.041], for which the pIC50 was 4.66.

For the molecule `O=C(N/N=C/c1cc(Br)ccc1OC(=O)c1ccco1)/C(=C\c1cccs1)NC(=O)c1ccccc1` [D10.042], the pIC50 is 4.62.

Take `O=C(N/N=C\c1cccc(OC(=O)c2ccc([N+](=O)[O-])cc2)c1)/C(=C/c1ccc2c(c1)OCO2)NC(=O)c1ccccc1` [D10.043]: the pIC50 is 4.62.

With `O=C(COc1cccc([N+](=O)[O-])c1)N/N=C/c1ccc(O)c([N+](=O)[O-])c1` [D10.044], the pIC50 was 4.61.

Take `Cc1ccc(/C=N/NC(=O)c2ccc(NC(=O)c3cccc([N+](=O)[O-])c3)cc2)o1` [D10.045]: the pIC50 was 4.54.

For `COc1cc(Br)c(OCC(=O)N/N=C/c2cc(Br)c(O)c(O)c2Br)c(Br)c1` [D10.046], the pIC50 was 4.53.

On to `C/C(=N\NC(=O)c1cc(C)n[nH]1)c1ccc(-c2ccccc2)cc1` [D10.047], for which the pIC50 was 4.53.

As to `O=C(COc1cccc(Cl)c1)N/N=C/c1ccc(O)c([N+](=O)[O-])c1` [D10.049], the pIC50 is 4.50.

On to `COc1cc(Br)cc(Br)c1OCC(=O)N/N=C/c1ccc(O)c([N+](=O)[O-])c1` [D10.050], for which the pIC50 was 4.49.

For the molecule `CN(C)c1ccc(/C=C(\NC(=O)c2ccccc2)C(=O)N/N=C/c2cc(/N=N/c3ccccc3)ccc2O)cc1` [D10.051], the pIC50 was 4.47.

As to `CC(=O)Oc1ccc(-c2ccc(/C=N/NC(=O)C34CC5CC(C3)CC(c3ccc(C)cc3)(C5)C4)cc2)cc1` [D10.052], the pIC50 is 4.48.

Turning to `COc1ccc(/C(C)=N/NC(=O)CNc2ccc3ccccc3c2)cc1OC` [D10.053], the pIC50 is 4.48.

Consider `O=C(N/N=C/c1cccc(Oc2ccccc2)c1)c1cc(Br)cc(Br)c1O` [D10.054], for which the pIC50 is 4.48.

Regarding `C/C(=N\NC(=O)/C(=C\c1ccc(F)cc1)NC(=O)c1ccccc1)c1ccccc1O` [D10.055], the pIC50 was 4.48.

With `O=C(N/N=C/c1c(O)ccc2ccccc12)c1cc(-c2ccc(-c3ccccc3)cc2)n[nH]1` [D10.056], the pIC50 is 4.47.

As to `CN(/N=C/c1sc(=O)[nH]c1Cl)c1ccccc1` [D10.057], the pIC50 was 4.49.

For the molecule `COc1ccc(/C=N/N=C2\NC(=O)C(Cc3cccc(C(F)(F)F)c3)S2)cc1` (stereo not drawn) [D10.058], the pIC50 was 4.47.

Take `O=C(N/N=C/c1cccc(I)c1)c1cc(Br)ccc1O` [D10.060]: the pIC50 is 4.44.

In the case of `CN(C)c1ccc(/C=C(\NC(=O)c2ccccc2)C(=O)N/N=C/c2ccccc2[N+](=O)[O-])cc1` [D10.061], the pIC50 is 4.41.

In the case of `O=C(N/N=C/c1cc(I)cc(I)c1O)c1ccc(NC(=O)c2ccccc2)cc1` [D10.062], the pIC50 is 4.40.

For the molecule `COc1ccc(C(=O)N/N=C/c2ccc(Cl)cc2Cl)cc1` [D10.063], the pIC50 was 4.39.

Regarding `Cc1ccc(C)n1-c1cccc(C(=O)N/N=C/c2cc(Br)c(O)c(Br)c2)c1` [D10.065], the pIC50 is 4.39.

Take `COc1cc(/C=N/NC(=O)CNC(=O)c2ccc(Cl)cc2)ccc1OC(=O)c1cccc(F)c1` [D10.066]: the pIC50 is 4.38.

Turning to `COc1cc(Br)ccc1OCC(=O)N/N=C/c1cc(Br)c(O)c(O)c1Br` [D10.067], the pIC50 is 4.35.
